Data from EP0217621A2, “Macromolecular tumor cell growth-inhibiting antibiotic” (SMITHKLINE BECKMAN CORPORATION, priority 1985, dated 1987).

Assays:
[1] = tested on: ADJ-PC6 Plasmacytoma; assay: in vivo ADJ-PC6 Plasmacytoma tumor model; design: species or system BALB/c female mice
Procedure: Likewise, AAC-345, in the form of the crude broth of ATCC 53270 and the purified active component of ATCC 53270, was tested in an additional in vivo tumor model known as ADJ-PC6 Plasmacytoma according to the following assay [see Cleare et al., J. Biochimie, 60, 830-850 (1978)]: • Tumor cells are carried by serial sc passage in BALB/c female mice and then collected aseptically on ca. Day 21 and minced in Hank's balanced salt solution. The cells are then dispersed by homogenizer, and cell concentration is adjusted to 4×10^6 viable (trypan blue-excluding) cells per ml by hemocytometer counts. A total of 0.5 ml (2x10^6 cells) is implanted sc on the right flank of BALB/c female mice in groups of 8. Treatment is given ip on Days 1-10, and tumors are measured in perpendicular diameters with a vernier caliper approximately three (3) weeks after tumor implantation (Days 18-21). Generally, > 75% inhibition of tumor growth reflects significant antitumor effect.

[2] = tested on: P388 leukemia; assay: in vivo ip P388 leukemia mouse model; design: species or system B6D2F1 mice; conditions: positive control, 1 mg/kg/day
Source text: P388 lymphocytic leukemia is currently the most widely used animal tumor model for screening for antitumor agents and for detailed evaluation of active compounds. This tumor system is widely accepted as an antitumor agent screening tool because it is sensitive to virtually all of the clinically active antineoplastic agents; quantitative and reproducible: amenable for large-scale screening; and predictive for activity in other animal tumor models. […] Rpts. (Part III), 3, 1-103 (1972)]: • 10^6 P388 leukemia cells are inoculated ip in B6D2F1 mice. Twenty-four hours later, if the tumor inoculum proves to be free of bacterial contamination (as determined by 24 hours incubation in thioglycollate broth), animals are randomized into groups of 6 and housed in shoebox cages. The purified active component of ATCC 53270 was dissolved in 0.9 percent NaCl solution (normal saline) at an appropriate concentration so that the desired dose was delivered in a volume of 0.5 ml. The crude broth of ATCC 53270 was administered undiluted or diluted with normal saline. Such saline solutions were stored in amber bottles at 4°C. The saline solution of the purified active component of ATCC 53270, saline solution of the crude broth of ATCC 53270 or undiluted crude broth of ATCC 53270 are administered ip on Days 1 through 5 (i.e. treatment is initiated 24 hrs after tumor inoculation). […] Animals are weighed as a group on Days 1, 5 and 9 and average weight change (δ wt.) is used as a reflection of toxicity. Each experiment also includes an inoculum titration -- groups of 8 mice inoculated ip with 10^5 to 10^0 P388 leukemia cells. The titration is used to calculate cell kill achieved by treatment with drugs. Animals are monitored daily for mortality and experiments are terminated after 45 days. The endpoint is median survival time (MST) and increase in lifespan (ILS) which is the percentage of increase in MST relative to untreated controls. Untreated controls inoculated ip with 10^6 P388 leukemia cells generally survive for a median of 9 to 11 days. A drug is considered active if it produces > 25 percent ILS.

SMILES: N.N.[Cl][Pt][Cl] [Cisplatin]
- TGI (percent of tumor growth inhibition) ([1]; Experiment I, 3 mg/kg/day ip Days 1-10, Day 21): 100%
- Mean Tumor Volume ([1]; Experiment I, 3 mg/kg/day ip Days 1-10, measured Day 21): 0 ± 0 mm^3
- tumor growth inhibition ([1]; positive control, general statement in the method): complete tumor growth inhibition
- ILS (increase in lifespan) ([2]; Experiment I): 117%
- Median Survival Time ([2]; Experiment I): 19.5 days
- Weight Change Day 5 ([2]; Experiment I): -0.2 gm
- Weight Change Day 9 ([2]; Experiment I): +1.4 gm
- ILS (increase in lifespan) ([2]; Experiment II): 89%
- Median Survival Time ([2]; Experiment II): 17 days
- Weight Change Day 5 ([2]; Experiment II): -0.6 gm
- Weight Change Day 9 ([2]; Experiment II): +1.2 gm
